Molecular target: Arachidonate 5-lipoxygenase (Rattus norvegicus)
Assay: Ability to inhibit 5-lipoxygenase in rat

`CN1C[C@@H](c2cccc(OCc3ccc4ccccc4n3)c2)OC1=O` gave an IC50 of 19.6 µM.

Source: BindingDB's records for doi:10.1021/jm00394a026 (Wyeth Laboratories, 1987)
